Measured values from ChEMBL document CHEMBL1201862, “PubChem BioAssay data set” (2004).
“And” between values parts separate entries of the source, which are not always exact repeats. Equal values may be shown once. The source made the active and inactive calls.

Columns and labels:
[1] = viability of uninfected HEp-2 cells – cell-based, HTS, cytotoxicity control for RSV inhibitor project, dose response (AID 2410); assay type: functional; details: human respiratory syncytial virus
[2] = target: T1, Ubiquitin-conjugating enzyme E2 N (Homo sapiens, UniProt P61088); assay type: functional;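 note: Dose-response confirmation in a TR-FRET assay detecting UBC13-driven polyubiquitin chain formation, inhibition measured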
T1 sequence (P61088 whole entry): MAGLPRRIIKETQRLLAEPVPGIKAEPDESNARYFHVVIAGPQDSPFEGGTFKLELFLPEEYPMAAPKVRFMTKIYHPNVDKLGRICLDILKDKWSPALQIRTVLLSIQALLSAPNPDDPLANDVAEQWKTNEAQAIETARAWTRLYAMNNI

[3] = target: T2, Corticotropin-releasing factor receptor 2/Corticotropin-releasing factor-binding protein (Homo sapiens, UniProt P24387+Q13324); experiment: Dose Response confirmation of uHTS hits for small molecule antagonists of the CRF-binding protein and CRF-R2 receptor complex.; assay type: functional; details: read-out: IC50_Mean
T2 sequence (Q13324 whole entry): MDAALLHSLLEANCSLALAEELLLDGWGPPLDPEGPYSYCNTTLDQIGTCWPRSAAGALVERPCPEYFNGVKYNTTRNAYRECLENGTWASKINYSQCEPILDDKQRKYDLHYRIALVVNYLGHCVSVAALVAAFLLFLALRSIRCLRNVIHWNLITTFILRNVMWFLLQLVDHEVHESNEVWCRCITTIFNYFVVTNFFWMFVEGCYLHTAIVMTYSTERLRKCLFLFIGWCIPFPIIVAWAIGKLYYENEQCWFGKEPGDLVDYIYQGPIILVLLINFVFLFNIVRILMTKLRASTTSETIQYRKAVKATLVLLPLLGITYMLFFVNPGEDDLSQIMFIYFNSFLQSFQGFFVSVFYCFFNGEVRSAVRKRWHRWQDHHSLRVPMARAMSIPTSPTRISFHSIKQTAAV
T2 sequence (P24387 whole entry): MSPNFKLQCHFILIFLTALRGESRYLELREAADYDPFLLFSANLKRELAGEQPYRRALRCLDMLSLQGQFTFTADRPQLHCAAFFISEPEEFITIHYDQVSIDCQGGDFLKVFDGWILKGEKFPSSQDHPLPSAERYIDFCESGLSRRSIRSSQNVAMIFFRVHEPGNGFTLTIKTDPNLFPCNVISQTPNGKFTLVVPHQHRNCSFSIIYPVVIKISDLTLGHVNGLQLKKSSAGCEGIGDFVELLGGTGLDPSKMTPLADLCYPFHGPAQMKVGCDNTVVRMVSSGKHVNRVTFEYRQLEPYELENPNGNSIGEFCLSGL

INS1 = experiment: INS-1E survival protection against cytokine death – cell-based, luminescence, retest, dose response (AID 449756); assay type: functional; details: Rattus norvegicus;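 note: cell death triggered by IL-1 beta plus TNF-alpha plus IFN-gamma mixture; protective hits raise ATP signal compared with cytokine alone wells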
[4] = target: T2, Corticotropin-releasing factor receptor 2/Corticotropin-releasing factor-binding protein; experiment: activators of CRF receptor 2 with binding protein – uHTS hits, confirmation (AID 602473); assay type: functional; details: read-out: EC50_Mean
[5] = Trypanosoma cruzi growth suppression in host cells – NIH3T3 host cells, beta-gal luminescence, confirmation (AID 2044); assay type: functional, cell-based;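 note: intracellular parasites grown in NIH/3T3 mouse fibroblasts as host cells; luminescent beta-galactosidase reporter signal from transgenic T. cruzi replicating inside host cells; inhibitors lower the luminescence signal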
[6] = tested on: Streptococcus sp. 'group A'; experiment: Streptococcus pyogenes SK(-)GAS viability under kanamycin – luminescence, BacTiterGlo, confirmation, counter-screen for streptokinase expression inhibitor project, dose response (AID 1900); assay type: functional, organism-based
Streptococcus = experiment: GAS UMAA2166 growth inhibition – luminescence, BacTiterGlo, counter-screen for streptokinase expression inhibitor project, dose response (AID 1915); assay type: functional, organism-based;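 note: potency for reduction of bacterial viability or growth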
Streptokinase A = target: T3, Streptokinase A (Streptococcus pyogenes serotype M1, UniProt P10520); experiment: viability-normalized secreted streptokinase activity reduction – plasminogen activation absorbance, OD405, dose response (AID 1914); assay type: functional, Streptococcus pyogenes M1 GAS;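 note: secreted streptokinase activity via plasminogen activation per viability signal from cell pellet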
T3 sequence (P10520 whole entry): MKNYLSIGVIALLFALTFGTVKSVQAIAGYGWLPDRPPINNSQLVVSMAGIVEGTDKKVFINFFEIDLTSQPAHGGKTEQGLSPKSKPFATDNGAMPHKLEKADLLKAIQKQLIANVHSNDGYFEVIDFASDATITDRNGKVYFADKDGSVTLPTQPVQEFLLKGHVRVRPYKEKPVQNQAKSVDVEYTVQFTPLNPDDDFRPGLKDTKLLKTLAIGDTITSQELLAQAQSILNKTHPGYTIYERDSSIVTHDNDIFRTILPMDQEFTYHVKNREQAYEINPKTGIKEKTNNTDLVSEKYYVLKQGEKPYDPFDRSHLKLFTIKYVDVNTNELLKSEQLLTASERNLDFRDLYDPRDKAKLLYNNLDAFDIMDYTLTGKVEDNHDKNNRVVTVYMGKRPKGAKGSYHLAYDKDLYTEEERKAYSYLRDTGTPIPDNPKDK

[7] = NIH3T3 cell viability loss – ATP luminescence, mouse fibroblasts, counter-screen, dose response (AID 2010); assay type: functional, cell-based;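 note: cells exposed to compound for about 90 hours before reading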
H9c2 = experiment: cells; assay type: functional, cell-based; details: Rattus norvegicus, H9c2, Myocardium
Large T antigen = Large T antigen (Simian virus 40, UniProt P03070); assay type: functional, Betapolyomavirus macacae;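 note: Confirmatory-stage PubChem screen for compounds that inhibit SV40 T antigen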
Large T antigen, sequence (P03070 whole entry): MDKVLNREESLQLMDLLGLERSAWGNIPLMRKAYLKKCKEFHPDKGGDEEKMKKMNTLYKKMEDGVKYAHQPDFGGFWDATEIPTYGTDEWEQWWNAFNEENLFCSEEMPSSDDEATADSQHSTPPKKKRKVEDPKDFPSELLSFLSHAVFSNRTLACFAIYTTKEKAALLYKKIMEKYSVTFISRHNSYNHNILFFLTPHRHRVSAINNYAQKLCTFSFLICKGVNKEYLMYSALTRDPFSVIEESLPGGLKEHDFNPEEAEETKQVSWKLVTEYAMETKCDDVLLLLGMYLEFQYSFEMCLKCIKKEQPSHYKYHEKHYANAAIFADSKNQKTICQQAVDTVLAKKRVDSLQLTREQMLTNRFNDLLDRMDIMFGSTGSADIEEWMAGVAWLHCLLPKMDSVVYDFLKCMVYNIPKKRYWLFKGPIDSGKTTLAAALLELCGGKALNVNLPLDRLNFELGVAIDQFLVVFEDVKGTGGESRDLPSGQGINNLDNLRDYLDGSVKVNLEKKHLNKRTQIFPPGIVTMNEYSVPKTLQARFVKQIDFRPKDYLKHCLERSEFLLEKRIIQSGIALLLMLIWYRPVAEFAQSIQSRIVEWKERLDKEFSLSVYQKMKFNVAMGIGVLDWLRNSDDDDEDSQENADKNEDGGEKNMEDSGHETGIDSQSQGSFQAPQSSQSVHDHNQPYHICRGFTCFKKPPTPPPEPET

[8] = viability of PTEN-deleted HCT116 cells – cell-based, HCT116 PTEN knockout, dose response (AID 1047); assay type: functional;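 note: HCT116 colon tumor cells with PTEN knocked out; cells exposed to compound for 60 hours before readout; potency for loss of cell viability measured by luminescence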
[9] = viability of HCT116 lacking mutant beta-catenin – cell-based, human colon tumor, dose response (AID 1045); assay type: functional;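 note: HCT116 colon tumor cells with beta catenin knocked out; cells exposed to compound for 60 hours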
[10] = target: T4, Rac GTPase-activating protein 1 (Homo sapiens, UniProt Q9H0H5); experiment: blockers of MgcRacGAP-driven Rac1 GTP hydrolysis – biochemical, ADP Hunter fluorescence, primary and confirmatory, confirmation (AID 624330); assay type: functional
T4 sequence (Q9H0H5 whole entry): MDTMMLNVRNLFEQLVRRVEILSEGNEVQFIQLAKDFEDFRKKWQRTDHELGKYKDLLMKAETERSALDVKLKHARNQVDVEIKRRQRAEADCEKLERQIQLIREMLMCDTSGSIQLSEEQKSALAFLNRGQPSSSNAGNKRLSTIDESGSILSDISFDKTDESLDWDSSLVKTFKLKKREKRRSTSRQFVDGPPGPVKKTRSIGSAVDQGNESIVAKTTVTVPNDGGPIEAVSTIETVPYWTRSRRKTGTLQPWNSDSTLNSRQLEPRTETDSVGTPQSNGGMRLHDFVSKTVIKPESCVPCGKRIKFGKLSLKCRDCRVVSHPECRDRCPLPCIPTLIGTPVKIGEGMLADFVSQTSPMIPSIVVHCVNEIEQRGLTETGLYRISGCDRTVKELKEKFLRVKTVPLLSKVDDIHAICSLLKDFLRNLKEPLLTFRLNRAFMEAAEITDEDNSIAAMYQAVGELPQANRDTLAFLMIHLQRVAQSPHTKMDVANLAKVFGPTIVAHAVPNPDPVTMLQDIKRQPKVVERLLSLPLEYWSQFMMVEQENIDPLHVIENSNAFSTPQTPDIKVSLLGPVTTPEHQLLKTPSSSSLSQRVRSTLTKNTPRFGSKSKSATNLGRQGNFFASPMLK

[11] = target: FAD-linked sulfhydryl oxidase ALR (Homo sapiens, UniProt P55789); experiment: ALR-catalysed DTT oxidation blockers – biochemical, H2O2 detection, luminescence, cherry-pick, dose response (AID 493248)
FAD-linked sulfhydryl oxidase ALR, sequence (P55789 whole entry): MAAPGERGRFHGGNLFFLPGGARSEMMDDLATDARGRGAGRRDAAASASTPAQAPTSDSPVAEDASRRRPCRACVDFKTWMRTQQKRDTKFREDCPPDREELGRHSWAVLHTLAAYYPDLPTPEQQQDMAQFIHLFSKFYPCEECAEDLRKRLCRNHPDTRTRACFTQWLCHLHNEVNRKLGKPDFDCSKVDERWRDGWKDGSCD

[12] = reduction of Shn3 3'UTR-driven luciferase in osteoblasts – cell-based, Clone20 osteoblasts, firefly luciferase, cherry-picked, dose response (AID 624132); assay type: functional;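 note: firefly luciferase luminescence from reporter carrying the Shn3 3'UTR in osteoblasts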
[13] = target: T5, Heat shock factor protein 1 (Mus musculus, UniProt P38532); experiment: enhancement of HSF1-driven luciferase signal – cell-based, NIH3T3, luminescence, dose retest, confirmation (AID 435004); assay type: functional;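 note: stress induced by proteasome inhibitor MG132 added 30 min after compound; luciferase reporter driven by HSF1 response element in NIH3T3 cells; actives raise luminescence as potentiators of the MG132 stress response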
T5 sequence (P38532 whole entry): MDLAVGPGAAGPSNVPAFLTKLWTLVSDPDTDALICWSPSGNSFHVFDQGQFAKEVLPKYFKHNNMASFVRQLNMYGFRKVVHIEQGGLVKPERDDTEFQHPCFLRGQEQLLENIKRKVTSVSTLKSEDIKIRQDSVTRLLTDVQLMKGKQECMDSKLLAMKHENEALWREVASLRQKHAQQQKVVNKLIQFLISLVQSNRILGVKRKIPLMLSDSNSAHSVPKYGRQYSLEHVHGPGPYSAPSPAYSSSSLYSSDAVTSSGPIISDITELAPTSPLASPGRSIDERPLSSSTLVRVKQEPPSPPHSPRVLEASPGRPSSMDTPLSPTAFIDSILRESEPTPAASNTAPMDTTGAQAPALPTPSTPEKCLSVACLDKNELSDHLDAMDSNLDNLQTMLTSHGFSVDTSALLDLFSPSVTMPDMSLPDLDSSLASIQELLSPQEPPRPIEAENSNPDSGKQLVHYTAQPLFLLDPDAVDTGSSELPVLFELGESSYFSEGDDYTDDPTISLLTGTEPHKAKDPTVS

## CNCC(O)c1cc(OCc2ccccc2)c(OCc2ccccc2)cc1F (centres undefined)
[1]
  CC50: 22.3 µM (active)
[2]
  IC50: > 20 µM (inactive)

## CC(=O)Cc1cc(O)c2ccccc2c1OC(=O)c1ccc(Br)cc1
[3]
  IC50: > 47.1 µM (inactive)
INS1
  AC50: 14.9 µM (active)
[4]
  EC50: > 53 µM (inactive)

## C=CCn1c(NC(=O)c2ccc(C)cc2)nc2ccccc21
[5]
  EC50: 2.11 µM (active)
[6]
  EC50: 84.6 µM (active)
[2]
  IC50: > 20 µM (inactive)
Streptococcus
  EC50: > 150 µM (not active)
Streptokinase A
  EC50: > 150 µM (not active)
[7]
  EC50: > 60 µM (not active)

## COc1ccccc1S(=O)(=O)N1CCn2cccc2C1C (centres undefined)
[3]
  IC50: > 47.1 µM (inactive)
[4]
  EC50: > 53 µM (inactive)

## CC(=O)Oc1ccc(C(=O)OCC(=O)c2c(N)n(C)c(=O)n(C)c2=O)cc1OC(C)=O
H9c2
  IC50: 6.29 µM (active)
Large T antigen
  IC50: 8.56 µM (active)

## CCN(CC)S(=O)(=O)c1cc(C(=O)Nc2cc(Cl)ccc2N2CCN(C)CC2)ccc1Cl
[8]
  EC50: 13.3 µM (active)
[9]
  EC50: 15.8 µM (active)

## Cc1ccc(C23CC4CC(CC(NC(=O)NCCN(C)C)(C4)C2)C3)cc1
[5]
  EC50: 0.948 µM (active)
[8]
  EC50: 20.9 µM (active)
[9]
  EC50: 17.9 µM (active)
[7]
  EC50: > 60 µM (not active)

## Cc1cccc2sc(N(CCN3CCOCC3)C(=O)CCS(=O)(=O)c3ccccc3)nc12
[2]
  IC50: > 20 µM (inactive)

## N#Cc1c(N)nc(SC2CCCCC2=O)c(C#N)c1-c1ccco1 (centres undefined)
[3]
  IC50: < 0.368 µM (active)
[4]
  EC50: > 53 µM (inactive)

## Cn1cccc1Cc1nnc(SCC(=O)N2CCN(c3ccccc3)CC2)n1-c1ccc(F)cc1
[3]
  IC50: > 47.1 µM (inactive)
[4]
  EC50: > 53 µM (inactive)

## CN(C)c1ccc(NS(=O)(=O)c2ccc(Cl)cc2)cc1
Large T antigen
  IC50: 11.7 µM (active)
[10]
  IC50: 30.6 µM (active)

## Cc1cccc(OCC(O)CN2CCN(CCN3C(=O)c4cccc5cccc(c45)C3=O)CC2)c1C (centres undefined)
[5]
  EC50: 2.14 µM (active)
[2]
  IC50: > 20 µM (inactive)
[7]
  EC50: 8.54 µM (active)

## Cc1ccnc(-n2c(C)cc(/C=C3\C(=O)NC(=S)N(C)C3=O)c2C)c1
[8]
  EC50: 95.3 µM (active)
[9]
  EC50: 65.8 µM (active)

## Cc1ccc(S(=O)(=O)N2CCCC(C(=O)NNCC(=O)Nc3cc(F)ccc3F)C2)cc1 (centres undefined)
[2]
  IC50: > 20 µM (inactive)

## O=C(NCCCn1ccnc1)c1nn2c(C(F)(F)F)cc(-c3ccc(Br)cc3)nc2c1Cl
[8]
  EC50: 16.8 µM (active)
[9]
  EC50: 33.2 µM (active)

## N#C/C(=C\c1cccn1-c1ccccc1)C(=O)NC1CCCCC1
[3]
  IC50: > 47.1 µM (inactive)
[4]
  EC50: > 53 µM (inactive)

## Cc1ccc[n+](CC(=O)Nc2ccc(N(C)C)cc2)c1
[11]
  AC50: 2.2 µM (active)
[10]
  IC50: 113 µM (active)

## Cc1c(OCC(=O)NCCN2CCOCC2)ccc2c3c(c(=O)oc12)CCC3
[3]
  IC50: > 47.1 µM (inactive)
[4]
  EC50: > 53 µM (inactive)

## CCCn1nc(C(=O)Nc2cc(S(=O)(=O)Nc3ccc(OC)cc3)ccc2O)c2ccccc2c1=O
[3]
  IC50: > 47.1 µM (inactive)
[4]
  EC50: > 53 µM (inactive)

## Cc1nnc(NC(=O)CSc2nnc(Cc3ccccc3)n2-c2ccccc2)s1
[3]
  IC50: > 47.1 µM (inactive)
[4]
  EC50: > 53 µM (inactive)

## Cc1ccc(OC(=O)CCC(=O)Oc2ccc(C)cc2C)c(C)c1
[12]
  AC50: 3.51 µM (active)

## O=C(CC(NC(=O)OCc1ccccc1)C(=O)OCc1ccccc1)OCc1ccccc1 (centres undefined)
[3]
  IC50: > 47.1 µM (inactive)
[4]
  EC50: > 53 µM (inactive)

## Cc1ccc(C)c(S(=O)(=O)Nc2ccc(-n3cnnn3)cc2)c1
[12]
  AC50: > 70 µM (inactive)

## COc1ccccc1NC(=O)c1c(/N=C/c2c(O)ccc3ccccc23)cnn1C
[2]
  IC50: > 20 µM (inactive)

## COc1cc(/C=N/c2c(C)cc(C)cc2C)ccc1OC(C)=O
[3]
  IC50: > 47.1 µM (inactive)
[4]
  EC50: > 53 µM (inactive)

## Oc1ccc(N/C(S)=N/c2ccccc2)cc1
Large T antigen
  IC50: 5.61 µM (active) and 8.33 µM (active)
[13]
  EC50: > 260 µM (inactive)
[10]
  IC50: 32.9 µM (active)

## COc1cc(/C=N/NC(=O)C(C)n2nnc3ccccc32)ccc1O (centres undefined)
Large T antigen
  IC50: 19.8 µM (active)
[11]
  AC50: 0.332 µM (active)
[10]
  IC50: 25.5 µM (active)

## Sc1nnc(-c2[nH]nc3c2CCC3)n1/N=C/C=C/c1ccco1
Large T antigen
  IC50: 18.1 µM (active)

## OC1=C(/C=N/c2ccc(O)cc2)CCCC1
Large T antigen
  IC50: 6.66 µM (active)
[10]
  IC50: 12.5 µM (active)

## Cc1ccc2nc(N=C(N)NC(=O)NC3CCCCC3)nc(C)c2c1
[2]
  IC50: > 20 µM (inactive)
Streptokinase A
  EC50: 52.7 µM (active)
